In patent US20210093637A1, “TOPICAL OINTMENT FORMULATIONS OF PDE-4 INHIBITOR AND THEIR USE IN TREATING SKIN CONDITIONS” (Dermavant Sciences GmbH, priority 2017, published 2021):

What was measured:
[1] = test system: NC/Nga mice; test: Prophylactic study in DNCB-induced atopic dermatitis NC/Nga mice (treatment days 1-14); type: in vivo, mouse; settings: skin sections day 15
Description: (§1) Atopic dermatitis (AD) was induced in specific pathogen-free (SPF) female NC/Nga mice (n=8/group), 8-12 weeks old, by repeated percutaneous applications of dinitrochlorobenzene (DNCB) to the dorsal skin of the ears and back on days 4, 7, 10, and 13. NC/Nga mice are an established mouse model for atopic dermatitis. See Suto et al. NC/Nga mice: a mouse model for atopic dermatitis; Int Arch Allergy Immunol. 1999; 120 Suppl 1:70-5; and Gao et al., Establishment of allergic dermatitis in NC/Nga mice as a model for severe atopic dermatitis, Biol. Pharm. Bull. 2004 September; 27(9): 1376-81.
(§2) A prophylactic study and a therapeutic study was conducted: • 1. Prophylactic study: 0.2% formulation (C1), 0.5% formulation (C2), RVT-501 placebo, tacrolimus placebo, 0.1% tacrolimus, or no treatment (AD control) on days 1-14 or sham-induction of AD. • 2. Therapeutic study: 0.2% formulation (C1), 0.5% formulation (C2), active ingredient placebo, tacrolimus placebo, 0.1% tacrolimus, or no treatment (AD control) on days 8-14.
(§3) Scratching assays were performed on days 2, 8, 11, 14 in both studies. Skin samples were harvested for histopathology and cytokine analysis on day 15. Histopathology of sham-induced versus DNCB-induced mouse skin indicates clear presence of atopic dermatitis.

[2] = test system: NC/Nga mice; test: Therapeutic study in DNCB-induced atopic dermatitis NC/Nga mice (treatment days 8-14); type: in vivo, mouse
Description: as §1, §2, §3

SMILES: C=CC[C@@H]1/C=C(\C)C[C@H](C)C[C@H](OC)[C@H]2O[C@@](O)(C(=O)C(=O)N3CCCC[C@H]3C(=O)O[C@H](/C(C)=C/[C@@H]3CC[C@@H](O)[C@H](OC)C3)[C@H](C)[C@@H](O)CC1=O)[C@H](C)C[C@@H]2OC [0.1% tacrolimus, tacrolimus]
- AD lesions induced by DNCB at the microscopic level [1]: attenuated AD lesions
- scratching ([2]; day 14): significant decrease in scratching
- IL-1α, IL-1β, IL-4, IL-5, IL-10, IL-12(p40), IL-13, eotaxin, GM-CSF, KC, MCP-1, MIP-1α, MIP-1β, RANTES, and TNF-α in skin ([2]; day 15): significantly decreased
- AD lesion severity ([2]; skin sections day 15): trended toward a reduction
